Here are results for 19 compounds from ChEMBL document CHEMBL1129852, “Peptidyl -keto thiazole as potent thrombin inhibitors” (Bioorg Med Chem Lett, 1997).

Assay [1] can be described thus: The compound was tested for the inhibitory activity against elastase enzyme. The class given is functional. To be noted: Homo sapiens.
For assay [2], the target named is T1, Serine protease 1 (Bos taurus, UniProt P00760).
T1 sequence (P00760 whole entry): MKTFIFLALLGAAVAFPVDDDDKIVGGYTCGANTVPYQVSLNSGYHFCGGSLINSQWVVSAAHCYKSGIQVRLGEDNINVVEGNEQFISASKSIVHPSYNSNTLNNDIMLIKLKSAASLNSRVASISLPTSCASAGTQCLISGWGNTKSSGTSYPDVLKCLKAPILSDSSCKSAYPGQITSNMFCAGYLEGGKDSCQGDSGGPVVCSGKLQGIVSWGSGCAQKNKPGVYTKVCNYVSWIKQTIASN
The experiment in a line: Inhibition of trypsin.

Assay [3] addresses Prolyl endopeptidase (Sus scrofa, UniProt P23687). Description: The compound was tested for the inhibitory activity against prolyl endo peptidase(PEP) enzyme.
Assay [4] addresses Prothrombin (Homo sapiens, UniProt P00734). The experiment in a line: Inhibition of thrombin.
Assay [5] in a line: Relative inhibition of trypsin and thrombin. The arrangement: reference not given here.

Prolyl endopeptidase, sequence (P23687 whole entry): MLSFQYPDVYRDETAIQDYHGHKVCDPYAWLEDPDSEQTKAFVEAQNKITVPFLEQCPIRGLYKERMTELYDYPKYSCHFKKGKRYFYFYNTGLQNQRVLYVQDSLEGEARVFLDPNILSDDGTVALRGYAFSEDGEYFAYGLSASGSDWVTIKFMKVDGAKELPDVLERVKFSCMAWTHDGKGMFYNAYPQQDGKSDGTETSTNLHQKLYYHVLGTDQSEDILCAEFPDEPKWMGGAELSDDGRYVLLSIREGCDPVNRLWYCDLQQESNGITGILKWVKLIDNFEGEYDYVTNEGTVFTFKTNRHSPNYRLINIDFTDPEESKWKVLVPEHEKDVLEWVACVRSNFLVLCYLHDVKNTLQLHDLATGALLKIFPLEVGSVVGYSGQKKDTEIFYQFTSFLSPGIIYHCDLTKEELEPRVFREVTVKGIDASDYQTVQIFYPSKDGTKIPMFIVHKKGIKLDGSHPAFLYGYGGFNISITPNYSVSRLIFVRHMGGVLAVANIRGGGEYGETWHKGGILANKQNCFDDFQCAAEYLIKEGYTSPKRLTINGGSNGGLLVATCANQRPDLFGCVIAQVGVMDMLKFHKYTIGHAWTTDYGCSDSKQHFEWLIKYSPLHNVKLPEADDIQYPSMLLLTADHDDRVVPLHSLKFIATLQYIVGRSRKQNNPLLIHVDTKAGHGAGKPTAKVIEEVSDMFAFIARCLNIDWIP

For the compound `CC(C)[C@H](NC(=O)[C@@H]1CCCN1C(=O)CCCc1ccccc1)C(=O)c1nccs1`, the IC50 in assay [1] is over 1000 µM; in assay [2], over 1000 µM; in assay [3] it was 7.7 µM; in assay [4], over 1000 µM.

With `NC(N)=NCCC[C@@H](NC(=O)[C@@H]1CCCCN1C(=O)[C@H](N)Cc1ccccc1)C(=O)c1nccs1`, in assay [5], the Ratio was 56.

As for `NCCCC[C@H](NC(=O)[C@@H]1CCCN1C(=O)[C@H](N)Cc1ccccc1)C(=O)c1nccs1`, the figures for the IC50 in assay [2] and in assay [4] were 1.2 µM and 0.26 µM, respectively. Moreover, the Ratio in assay [5] stood at 4.6.

`N=C(N)NCCC[C@H](NC(=O)[C@@H]1CCCCN1C(=O)[C@H](N)Cc1ccccc1)C(=O)c1nccs1` had an IC50 in assay [2] of 41 µM.

`N=C(N)NCCC[C@@H](NC(=O)[C@@H]1CCCCN1C(=O)[C@H](N)Cc1ccccc1)C(=O)c1nccs1` gave an IC50 in assay [4] of 0.73 µM.

Regarding `CC(C)[C@@H](NC(=O)[C@H](N)Cc1ccccc1)C(=O)N[C@@H](CCCN=C(N)N)C(=O)c1nccs1`, the Ratio in assay [5] came to 21.

On to `O=C(c1nccs1)[C@H]1CCCN1C(=O)[C@@H]1CCCN1C(=O)CCCc1ccccc1`, for which the IC50 is over 1000 µM in assay [1], over 1000 µM in assay [2], 0.0044 µM in assay [3] and over 1000 µM in assay [4].

`C[C@H](NC(=O)[C@@H]1CCCN1C(=O)CCCc1ccccc1)C(=O)c1nccs1`: the IC50 was over 1000 µM in assay [1], over 1000 µM in assay [2], 0.005 µM in assay [3] and over 1000 µM in assay [4].

`NCCCC[C@H](NC(=O)[C@@H]1CCCN1C(=O)CCCc1ccccc1)C(=O)c1nccs1`: the IC50 is 2.4 µM in assay [2], 7.8 µM in assay [3] and 46 µM in assay [4].

Turning to `N=C(N)NCCC[C@H](NC(=O)[C@@H]1CCN1C(=O)[C@H](N)Cc1ccccc1)C(=O)c1nccs1`, the IC50 in assay [2] was determined as 0.009 µM; in assay [4], 0.003 µM.

In the case of `NC(N)=NCCC[C@H](NC(=O)[C@@H]1CCCN1C(=O)[C@H](N)Cc1ccccc1)C(=O)c1nccs1`, the values for the half-inhibitory concentration (IC50) in assay [2] and in assay [4] were 0.0042 µM and 0.0015 µM, respectively. Also, the Ratio in assay [5] is 2.8.

With `N=C(N)NCCC[C@@H](NC(=O)[C@@H]1CCCN1C(=O)[C@@H](Cc1ccccc1)NC(=O)OCc1ccccc1)C(=O)c1nccs1`, the IC50 stood at 0.0016 µM in assay [2] and 0.002 µM in assay [4]. The Ratio in assay [5] stood at 0.8.

Consider `NC(N)=NCCC[C@H](NC(=O)[C@@H]1CCN1C(=O)[C@H](N)Cc1ccccc1)C(=O)c1nccs1`, for which the Ratio in assay [5] was found to be 3.

Turning to `CC(=O)N[C@H](Cc1ccccc1)C(=O)N1CCC[C@H]1C(=O)N[C@H](CCCNC(=N)N)C(=O)c1nccs1`, the IC50 in assay [2] was 0.23 µM; in assay [4], 2.3 µM.

Consider `CC(=O)N[C@H](Cc1ccccc1)C(=O)N1CCC[C@H]1C(=O)N[C@H](CCCN=C(N)N)C(=O)c1nccs1`, for which, in assay [5], the Ratio was determined as 0.1.

Turning to `N=C(N)NCCC[C@@H](NC(=O)[C@@H]1CCCN1C(=O)CCc1ccccc1)C(=O)c1nccs1`, the half-maximal inhibitory concentration (IC50) was 0.23 µM in assay [2] and 0.82 µM in assay [4]. Moreover, the Ratio in assay [5] is 0.3.

`N=C(N)NCCC[C@H](NC(=O)[C@@H]1CCCN1C(=O)CCCc1ccccc1)C(=O)c1nccs1`: the IC50 in assay [1] was over 1000 µM; in assay [2] it was 0.23 µM; in assay [3], 28 µM; in assay [4], 2 µM.

In the case of `NCCCCC[C@H](NC(=O)[C@@H]1CCCN1C(=O)[C@H](N)Cc1ccccc1)C(=O)c1nccs1`, the IC50 is 16 µM in assay [2] and 14 µM in assay [4]. Also, the Ratio in assay [5] came out at 1.1.

For the compound `CC(C)[C@@H](NC(=O)[C@H](N)Cc1ccccc1)C(=O)N[C@@H](CCCNC(=N)N)C(=O)c1nccs1`, the figures for the IC50 in assay [2] and in assay [4] were 0.18 µM and 0.0086 µM, respectively.
